Assays:
[1] = Pharmacokinetics after intravenous and oral administration in rats; type: in vivo; details: for clearance (CL) / AUC(0-t) / half-life / Vd: iv dosing, 1 mg/kg; for F: oral bioavailability; for AUC(0-t) / half-life / Vd: rat, plasma; for Vd: read-out: Vss
Procedure: The LC/MS/MS system used in the analysis consists of an Agilent 1200 Series vacuum degasser, binary pump, well-plate autosampler, thermostatted column compartment, the Agilent G6430 Triple Quadrupole Mass Spectrometer with an electrosprayionization (ESI) source. Quantitative analysis was carried out using MRM mode. The parameters for MRM transitions are in the Table A.
An Agilent XDB-C18, 2.1×30 mm, 3.5 μM column was used for the analysis. 5 μL of the samples were injected. Analysis condition: The mobile phase was 0.1% formic acid in water (A) and 0.1% formic acid in methanol (B). The flow rate was 0.4 mL/min. And the gradient of Mobile phase was in the Table B.
Alternatively, an Agilent 6330 series LC/MS/MS spectrometer equipped with G1312A binary pumps, a G1367A autosampler and a G1314C UV detector were used in the analysis. An ESI source was used on the LC/MS/MS spectrometer. The analysis was done in positive ion mode as appropriate and the MRM transition for each analyte was optimized using standard solution. A Capcell MP-C18 100×4.6 mm I.D., […] column (Phenomenex, Torrance, Calif., USA) was used during the analysis. The mobile phase was 5 mM ammonia acetate, 0.1% MeOH in water (A): 5 mM ammonia acetate, 0.1% MeOH in acetonitrile (B) (70:30, v/v). The flow rate was 0.6 mL/min. Column was maintained at ambient temperature. 20 μL of the samples were injected.
The compounds disclosed herein are assessed in pharmacokinetic studies in mice, rats, dogs or monkeys. The compounds are administered as a water solution, 2% HPMC+1% TWEEN®80 in water solution, 5% DMSO+5% solutol in saline, 4% MC suspension or capsule. For the intravenous administration, the animals are generally given at 1 or 2 mg/kg dose. For the oral (p.o.) dosing, mice and rats are generally given 5 or 10 mg/kg dose, and dogs and monkeys are generally given 10 mg/kg dose. The blood samples (0.3 mL) are drawn at 0.25, 0.5, 1.0, 2.0, 3.0, 4.0, 6.0, 8.0, 12 and 24 h time points or 0.083, 0.25, 0.5, 1.0, 2.0, 4.0, 6.0, 8.0 and 24 h time points and centrifuged at 3,000 or 4000 rpm for 2 to 10 min. The plasma solutions are collected, and stored at −20° C. or −70° C. until analyzed by LC/MS/MS as described above.

[2] = Compound stability in human liver microsomes; type: in vitro ADME; details: for half-life: pH 7.4, 37° C., NADPH, read-out: Human T1/2; for CLint scaled: pH 7.4, in vivo CLint extrapolated
Procedure: (§1) Human or rat liver microsomes incubations were conducted in duplicate in polypropylene tubes. The typical incubation mixtures consisted of human or rat liver microsomes (0.5 mg protein/mL), compounds of interest (5 μM) and NADPH (1.0 mM) in a total volume of 200 μL potassium phosphate buffer (PBS, 100 mM, pH 7.4). Compounds were dissolved in DMSO and diluted with PBS such that the final concentration of DMSO was 0.05%. The enzymatic reactions were commenced with the addition of protein after a 3-min preincubation and incubated in a water bath open to the air at 37° C. Reactions were terminated at various time points (0, 5, 10, 15, 30, 60 min) by adding equal volume of ice-cold acetonitrile. The samples were stored at −80° C. until LC/MS/MS assays.
(§2) The concentrations of compounds in the incubation mixtures of human or rat liver microsomes were determined by a LC/MS/MS method. The ranges of the linearity in the concentration range were determined for each tested compounds.
(§3) A parallel incubation was performed using denatured microsomes as the negative control, and reactions were terminated at various time points (0, 15, 60 min) after incubation at 37° C.
(§4) Verapamil (1 μM) was selected as the positive control, and reactions were terminated at various time points (0, 5, 10, 15, 30, 60 min) after incubation at 37° C. Both positive and negative control samples were included in each assay to ensure the integrity of the microsomal incubation system.
(§5) In addition, the stability date of compound in human and rat liver microsomes was also obtained through the following method. Human or rat liver microsomes incubations were conducted in duplicate in polypropylene tubes. The typical incubation mixtures consisted of human or rat liver microsomes (0.5 mg protein/mL), compounds of interest (1.5 μM) and EDTA (1.0 mM) in a total volume of 30 μL potassium phosphate buffer (PBS, 100 mM, pH 7.4). Compounds were dissolved in DMSO and diluted with PBS such that the final concentration of DMSO was 0.2%. The enzymatic reactions were commenced with the addition of 15 μL NADPH (final concentration: 2 mM) after a 10-min preincubation and incubated in a water bath open to the air at 37° C. Reactions were terminated at various time points (0, 15, 30, 60 min) by adding 135 μL acetonitrile (contain IS). The samples were centrifuged at 4000 rpm for 10 min to remove protein, the supernatant was stored at −80° C. until LC/MS/MS assays. Ketanserin (1 μM) was selected as the positive control, and reactions were terminated at various time points (0, 15, 30, 60 min) after incubation at 37° C. Both positive and negative control samples were included in each assay to ensure the integrity of the microsomal incubation system.
(§6) The concentrations of compounds in human or rat liver microsome incubations were plotted as a percentage of the relevant zero time point control for each reaction. The in vivo CLint were extrapolated (ref.: Naritomi, Y.; Terashita, S.; Kimura, S.; Suzuki, A.; Kagayama, A.; and Sugiyama, Y.; Prediction of human hepatic clearance from in vivo animal experiments and in vitro metabolic studies with liver microsomes from animals and humans. Drug Metab. Dispos., 2001, 29: 1316-1324).

JAK1 (h) = molecular target: T1, JAK1 (h) (Homo sapiens, UniProt P23458); test: JAK1 (h) kinase assay; type: biochemical
T1 construct: purchased Millipore UK Ltd (contract assay service)
T1 sequence (P23458 whole entry): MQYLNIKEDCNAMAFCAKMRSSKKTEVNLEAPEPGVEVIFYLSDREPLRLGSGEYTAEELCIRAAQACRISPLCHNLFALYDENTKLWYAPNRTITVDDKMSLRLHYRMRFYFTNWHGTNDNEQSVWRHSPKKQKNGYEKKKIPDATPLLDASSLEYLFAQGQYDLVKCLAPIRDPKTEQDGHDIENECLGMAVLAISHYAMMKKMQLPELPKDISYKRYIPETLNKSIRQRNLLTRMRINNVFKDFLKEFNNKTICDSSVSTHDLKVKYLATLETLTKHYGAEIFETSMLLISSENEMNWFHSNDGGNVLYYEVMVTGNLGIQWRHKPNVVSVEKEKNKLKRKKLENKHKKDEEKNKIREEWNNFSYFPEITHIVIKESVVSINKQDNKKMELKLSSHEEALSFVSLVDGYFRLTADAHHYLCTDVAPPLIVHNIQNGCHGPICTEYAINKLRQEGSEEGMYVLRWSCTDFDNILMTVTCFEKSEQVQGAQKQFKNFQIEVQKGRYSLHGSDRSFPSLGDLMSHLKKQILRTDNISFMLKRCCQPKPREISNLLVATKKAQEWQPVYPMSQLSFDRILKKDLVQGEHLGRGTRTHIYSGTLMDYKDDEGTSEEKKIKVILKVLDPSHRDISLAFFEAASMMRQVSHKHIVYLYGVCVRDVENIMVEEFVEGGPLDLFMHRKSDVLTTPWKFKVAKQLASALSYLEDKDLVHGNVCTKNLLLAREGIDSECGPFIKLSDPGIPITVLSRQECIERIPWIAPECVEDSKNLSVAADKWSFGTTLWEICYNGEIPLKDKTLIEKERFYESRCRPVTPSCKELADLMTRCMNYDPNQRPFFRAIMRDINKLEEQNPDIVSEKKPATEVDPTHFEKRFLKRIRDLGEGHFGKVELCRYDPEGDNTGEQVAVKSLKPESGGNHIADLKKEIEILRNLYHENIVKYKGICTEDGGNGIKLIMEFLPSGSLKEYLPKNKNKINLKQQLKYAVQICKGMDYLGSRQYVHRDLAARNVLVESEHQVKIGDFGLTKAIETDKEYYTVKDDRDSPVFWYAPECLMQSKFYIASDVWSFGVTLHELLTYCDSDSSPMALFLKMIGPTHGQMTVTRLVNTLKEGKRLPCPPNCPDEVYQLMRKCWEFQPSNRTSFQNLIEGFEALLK
Procedure: The above assay procedure can be used to determine the IC50 for inhibition and/or the inhibition constant, Ki. The IC50 is defined as the concentration of compound required to reduce the enzyme activity by 50% under the condition of the assay. The IC50 value is estimated by preparing a 10 point curve using a ½ log dilution series (for example, a typical curve may be prepared using the following compound concentrations: 3 μM, 1 μM, 0.3 μM, 0.1 μM, 0.03 μM, 0.01 μM, 0.003 μM, 0.001 μM, 0.0003 μM and 0 μM).
JAK1 (h) is incubated with 20 mM Tris/HCl pH 7.5, 0.2 mM EDTA, 500 μM GEEPLYWSFPAKKK, 10 mM MgAcetate and [γ-^33P-ATP] (specific activity approx. 500 cpm/pmol, concentration as required). The reaction is initiated by the addition of the MgATP mix. After incubation for 40 minutes at room temperature, the reaction is stopped by the addition of 3% phosphoric acid solution. 10 μL of the reaction is then spotted onto a P30 filtermat and washed three times for 5 minutes in 75 mM phosphoric acid and once in methanol prior to drying and scintillation counting.
The kinase assays described herein were performed at Millipore UK Ltd, Dundee Technology Park, Dundee DD2 1SW, UK.

[3] = Compound stability in rat liver microsomes; type: in vitro ADME; details: for half-life: pH 7.4, 37° C., NADPH, read-out: Rat T1/2; for CLint scaled: pH 7.4, in vivo CLint extrapolated
Procedure: as §1, §2, §3, §4, §5, §6

Structure (SMILES)	clearance (CL) [1]	F [1]	AUC(0-t) [1]	half-life [1]	Vd [1]	half-life [2]	CLint scaled [2]	IC50 (JAK1 (h))	half-life [3]	CLint scaled [3]
CN(c1nc(Nc2cnn(C)c2)ncc1Cl)C1CCN(c2ccc(C#N)cn2)C1 (stereo not drawn) [Ex. 7, 6-(3-((5-chloro-2-((1-methyl-1H-pyrazol-4-yl)amino)pyrimidin-4-yl) (methyl)amino)pyrrolidin-1-yl)nicotinonitrile]	37.7 mL/min/kg	67.1%	445 ng·h/mL	20.4 min	0.86 L/kg	14.5 min	120 mL/min/kg	22 nM	9.2 min	270 mL/min/kg
CCC1CN(c2ccc(C#N)cn2)CCC1N(C)c1nc(Nc2cc(C)n(C)n2)ncc1Cl (stereo not drawn) [Ex. 18, 6-(4-((5-chloro-2-((1,5-dimethyl-1H-pyrazol-3-yl)amino)pyrimidin-4-yl) (methyl)amino)-3-ethylpiperidin-1-yl)nicotinonitrile]	23.7 mL/min/kg	66.8%	663 ng·h/mL	109 min	2.88 L/kg	22.9 min	75.9 mL/min/kg		37.6 min	66.1 mL/min/kg
CCC1CN(c2ccc(C#N)cn2)CCC1Nc1nc(Nc2cn(C)nc2C)ncc1Cl (stereo not drawn) [Ex. 16, 6-(4-((5-chloro-2-((1,3-dimethyl-1H-pyrazol-4-yl)amino)pyrimidin-4-yl)amino)-3-ethylpiperidin-1-yl)nicotinonitrile]	23.3 mL/min/kg	60.9%	722 ng·h/mL	39.6 min	0.96 L/kg	3.94 min	442 mL/min/kg		6.85 min	363 mL/min/kg
CCC1CN(c2ccc(C#N)nn2)CCC1N(C)c1nc(Nc2ccc3c(C)n(C)nc3c2)ncc1Cl (stereo not drawn) [Ex. 19, 6-(4-((5-chloro-2-((2,3-dimethyl-2H-indazol-6-yl)amino)pyrimidin-4-yl)(methyl)amino)-3-ethylpiperidin-1-yl)pyridazine-3-carbonitrile]	43.8 mL/min/kg	23.4%	381 ng·h/mL	27 min	1.4 L/kg	10.5 min	165 mL/min/kg		6.55 min	379 mL/min/kg
CCC1CN(c2ccc(C#N)nn2)CCC1Nc1nc(Nc2ccc3c(C)n(C)nc3c2)ncc1Cl (stereo not drawn) [Ex. 17, 6-(4-((5-chloro-2-((2,3-dimethyl-2H-indazol-6-yl)amino)pyrimidin-4-yl)amino)-3-ethylpiperidin-1-yl)pyridazine-3-carbonitrile]	18.3 mL/min/kg	36.0%	911 ng·h/mL	40.2 min	0.45 L/kg	11.1 min	156 mL/min/kg		3.81 min	652 mL/min/kg
CCC1CN(c2ccc(C#N)cn2)CCC1N(C)c1nc(Nc2ccc3c(C)n(C)nc3c2)ncc1Cl (stereo not drawn) [Ex. 20, 6-(4-((5-chloro-2-((2,3-dimethyl-2H-indazol-6-yl)amino)pyrimidin-4-yl)(methyl)amino)-3-ethylpiperidin-1-yl)nicotinonitrile]	18.3 mL/min/kg	30.4%	881 ng·h/mL	90 min	1.9 L/kg	26 min	66.9 mL/min/kg		15 min	166 mL/min/kg
Cc1c2ccc(Nc3ncc(Cl)c(N(C)C4CCN(c5ccc(C#N)cn5)CC4)n3)cc2nn1C [Ex. 8, 6-(4-((5-chloro-2-((2,3-dimethyl-2H-indazol-6-yl)amino)pyrimidin-4-yl) (methyl)amino)piperidin-1-yl)nicotinonitrile]								3 nM		

Results, then the compound that gave them:

clearance (CL) [1]	F [1]	AUC(0-t) [1]	half-life [1]	Vd [1]	half-life [2]	CLint scaled [2]	IC50 (JAK1 (h))	half-life [3]	CLint scaled [3]	Structure (SMILES)
6.83 mL/min/kg	106.1%	2320 ng·h/mL	93.6 min	0.81 L/kg	17.9 min	97.3 mL/min/kg		38.8 min	64 mL/min/kg	CCC1CN(c2ccc(C#N)cn2)CCC1Nc1nc(Nc2cc(C)n(C)n2)ncc1Cl (stereo not drawn) [Ex. 21, 6-(4-((5-chloro-2-((1,5-dimethyl-1H-pyrazol-3-yl)amino)pyrimidin-4-yl)amino)-3-ethylpiperidin-1-yl)nicotinonitrile]
6.83 mL/min/kg	31.0%	2430 ng·h/mL	81 min	0.84 L/kg	15.5 min	112 mL/min/kg		20.4 min	121 mL/min/kg	CCC1CN(c2ccc(C#N)cn2)CCC1Nc1nc(Nc2ccc3c(C)n(C)nc3c2)ncc1Cl (stereo not drawn) [Ex. 23]
					6.4 min	272 mL/min/kg		7.12 min	349 mL/min/kg	Cc1c2ccc(Nc3ncc(Cl)c(N(C)C4CCN(c5ccc(C#N)nn5)CC4)n3)cc2nn1C [Ex. 24]
33.2 mL/min/kg	62.7%	512 ng·h/mL	39.6 min	1.66 L/kg	62.6 min	27.8 mL/min/kg		45.5 min	54.6 mL/min/kg	CCC1CN(c2ccc(C#N)nn2)CCC1Nc1ccnc(Nc2cc(C)n(C)n2)n1 (stereo not drawn) [Ex. 22, 6-(4-((2-((1,5-dimethyl-1H-pyrazol-3-yl)amino)pyrimidin-4-yl)amino)-3-ethylpiperidin-1-yl)pyridazine-3-carbonitrile]
